Reference: patent US11896560B2, “Cannabinoid dosing regime for dermatitis and inflammatory skin conditions” (Botanix Pharmaceuticals LTD, priority 2018, dated 2024)

Legend:
anandamide = conditions: in vitro; cited from earlier work
sensitized guinea-pigs = conditions: intravenous administration; cited from earlier work
[1] = biological target: human vanilloid receptor type 1 (VR1) (Homo sapiens, UniProt Q8NER1); conditions: in vitro; cited from earlier work
rats = conditions: injected into rats; cited from earlier work
[2] = Skin permeation of CBD formulation in Franz-type diffusion cell; assay type: in vitro ADME
Description: Dermatomed skin from a single donor was mounted in a Franz-type diffusion cell (0.55 cm^2 receptor fluid exposure surface area) and dosed with 5 ul of CBD formulated in an mixture of a volatile solvent (hexylmethyldisiloxane/polymethylsiloxane—93% w/w), and residual solvent (arlamol E—2% w/w) at a concentration of 5.0% (w/w; 35.5 mg/ml). Following dosing, receptor phase samples were collected at 4, 10, 24 and 48 hours; after which the study was terminated.
The residual formulation was removed by tape stripping and the epidermis and dermis separated by blunt dissection. The levels of CBD in the epidermis, dermis, and receptor fluid samples were then analyzed using a bioanalytical method with LC-MS/MS detection.

[3] = 5.0% w/w CBD formulation, 48-hour period
[4] = 5 ul of 5.0% w/w CBD formulation, over the 48-hour exposure period
[5] = following application of CBD mixture, 48 hours

Chain of human vanilloid receptor type 1 (VR1) (Q8NER1 whole entry): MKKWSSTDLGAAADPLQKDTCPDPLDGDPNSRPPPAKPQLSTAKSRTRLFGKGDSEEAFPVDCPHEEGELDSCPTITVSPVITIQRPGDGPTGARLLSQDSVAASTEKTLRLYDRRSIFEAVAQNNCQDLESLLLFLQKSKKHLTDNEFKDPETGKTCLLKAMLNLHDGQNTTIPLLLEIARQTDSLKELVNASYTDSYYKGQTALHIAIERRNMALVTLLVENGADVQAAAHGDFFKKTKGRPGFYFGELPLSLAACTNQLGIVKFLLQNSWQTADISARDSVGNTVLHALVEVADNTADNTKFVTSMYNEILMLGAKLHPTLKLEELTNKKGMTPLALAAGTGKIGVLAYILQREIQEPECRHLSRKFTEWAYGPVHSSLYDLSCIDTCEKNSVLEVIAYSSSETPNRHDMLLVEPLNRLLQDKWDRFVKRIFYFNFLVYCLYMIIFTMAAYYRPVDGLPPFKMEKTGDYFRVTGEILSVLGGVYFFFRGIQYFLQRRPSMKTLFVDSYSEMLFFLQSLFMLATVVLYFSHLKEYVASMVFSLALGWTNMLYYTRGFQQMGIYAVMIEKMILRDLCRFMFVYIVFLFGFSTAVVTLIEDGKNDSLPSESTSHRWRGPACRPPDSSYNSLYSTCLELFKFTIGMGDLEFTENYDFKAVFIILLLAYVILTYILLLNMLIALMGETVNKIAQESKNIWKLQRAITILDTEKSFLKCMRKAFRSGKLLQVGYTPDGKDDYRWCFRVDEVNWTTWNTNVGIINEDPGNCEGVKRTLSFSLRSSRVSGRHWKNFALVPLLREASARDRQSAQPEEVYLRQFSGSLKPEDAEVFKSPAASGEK

C=C(C)C1CCC(C)=CC1c1c(O)cc(CCCCC)cc1O (centres unmarked) [CBD, 2-[3-methyl-6-(1-methylethenyl)-2-cyclohexen-1-yl]-5-pentyl-1,3-benzenediol]
effect on anandamide (anandamide): inhibit | effect on airway obstruction (sensitized guinea-pigs): reduced airway obstruction | effect on human vanilloid receptor type 1 (VR1) [1]: stimulate | effect on cardiac inflammation (rats): attenuated cardiac inflammation | dermal deposition of CBD [2, 3]: 4.54 % of the applied dose | epidermal deposition of CBD [2, 3]: 13.17 % of the applied dose | CBD in the receptor phase (skin permeation), amount per area [2, 4]: < 278 ng/cm^2 | CBD in the receptor phase (skin permeation), percent of applied dose [2, 4]: less than 0.081% | dermis concentration per area [2, 5]: 8,408 ng/cm^2 | dermis concentration per tissue weight [2, 5]: 1,933 ng/g of tissue | dermis concentration per volume [2, 5]: ~1,933 ng/mL
